Patent US10561703B2, “Method of modulating sex hormone levels using a sex hormone secretion modulator” (GEMVAX & KAEL CO., LTD., priority 2013, dated 2020)

Tested on: FSH
Assay: FSH level in blood (serum CLIA) after repeated sc PEP-1
Type: in vivo, SD rats
Description: PEP-1 (peptide of SEQ ID NO: 1), lyophilized white powder, obtained according to the method mentioned in example 1 was dissolved in 0.9% of saline, considering the correction factor of PEP-1 (purity: 94.13%, content: 92.36%, correction factor: 1.15). 50 mg/mL stock solution was further diluted into 20 mg/mL, 2 mg/mL, and 1 mg/mL with 0.9% saline, and stored at 4° C. for a week until the use.
The purpose of this example is to confirm the change of sexual hormones in blood from SD rats with 7 days repeated daily administration of SEQ ID NO: 1 peptide, PEP-1. This experiment followed the Ethics Regulation of Animal Test by KAMSI Inc. (Korea Animal Medical Science Institute). In addition, this experiment, Non-GLP experiment, referred to the MFDS (Ministry of Food and Drug Safety) notification; Agent 2013-40 (5th April 2013), Principles of Good Laboratory Practice (1997).
SPF Rats (Crlj:CD(SD)) were purchased from ORIENTBio Inc. (Mokdong-ri, Buk-myeon, Gapyeong-gun, Gyeonggi-do, Republic of Korea). 75 male (6.5 weeks old and 190˜210 g) and 75 female (6.5 weeks old and 160˜180 g) rats were monitored for 4 days, and 64 of male and female rats (each) were selected for the experiment. Raising condition is as follows; 23±3° C. of temperature, […] of relative humidity, 10˜20 times/hr of number of air changes, 12 hours (8 a.m.˜8 p.m.) of lighting with 150˜300 Lux of intensity.
64 male and female […] (mentioned above) were divided into 8 groups. Administration regimen, for example, drugs, routes, dosages, and volumes were as follows:
The detailed administration regimen is as follows; once a day, twice a day and twice a week in each experimental group. Injection initiated at 10 a.m. every day, and each rat was injected at one minute intervals. Rats in Group 9, 10, 13 and 14 were injected twice a week. Administration of high dose test agent preceded that of low dose. The volume of injection was calculated using recently measured weight of rats, and it was 5 mL/kg. Subcutaneous injection was performed as follows; assistant tilted the back of rat upward, and experimenter sterilized the back of rat with 70% alcohol, followed by subcutaneous injection of test agent with 26 G syringe.
1.4 mL of blood sample (0.7 mL of serum) was collected after measurement of weight (Day 0). Next day (1 Day), 1.4 mL of blood sample (0.7 mL of serum) was collected twice after injection of test agent (4 hrs and 8 hrs after administration of test agent). For next 6 days (Day 2˜Day 7), 1.4 mL of blood was extracted once everyday (4 hours after injection of test agent). Dose and volume of test agent of each group followed the Table 3, and injection time zone was same every day. Blood was extracted from the jugular vein, and left at room temperature for 30 minutes. Serum was separated using centrifugation (10,000 rpm for 5 minutes), and stored at −70±5° C. in Deep freezer until the use. Blood extraction from each subject was done in the same time zone every day.
A CLIA (Chemi-Luminescence Immune Assay) Kit was used to analyze Testosterone, Estradiol E2, FSH (Follicle stimulating hormone), and LH (Luteinizing hormone). Analysis was completed within 48 hrs after blood extraction (Laboratory Medicine Department, Chung-Ang University Hospital), and detailed method is as follows; One-way ANOVA was used to verify the comparison between the vehicle and PEP-1, and between different doses of PEP-1. For further analysis, Duncan test was used as parametric test and Dunnett's test as non-parametric test. p<0.05 represents the statistical significance, and all statistical analysis was carried out with SPSS 10.1.
FSH was analyzed using the samples prepared from example 2. 100 μL of serum was used for analysis. Fundamentals of analysis is Two-site sandwich immunoassay based on direct chemi-luminescent. As mentioned in example 2, CLIA (Chemi-luminescence immune assay) Kit was used, following the manufacture's protocol.

EARPALLTSRLRFIPK (listed as Homo sapiens) [PEP-1, hormone secretion modulator / GnRH analog]
FSH level in blood (G3 Male 5 mg/kg sc 1/day x7, 7 days): 0.10 mIU/mL | FSH level in blood (G4 Female 5 mg/kg sc 1/day x7, 4 hr): 0.17 mIU/mL | FSH level in blood (G4 Female 5 mg/kg sc 1/day x7, 8 hr): 0.30 mIU/mL | FSH level in blood (G4 Female 5 mg/kg sc 1/day x7, 2 days): 0.32 mIU/mL | FSH level in blood (G4 Female 5 mg/kg sc 1/day x7, 3 days): 0.12 mIU/mL | FSH level in blood (G4 Female 5 mg/kg sc 1/day x7, 4 days): 0.17 mIU/mL | FSH level in blood (G4 Female 5 mg/kg sc 1/day x7, 5 days): 0.21 mIU/mL | FSH level in blood (G4 Female 5 mg/kg sc 1/day x7, 6 days): 0.13 mIU/mL | FSH level in blood (G4 Female 5 mg/kg sc 1/day x7, 7 days): 0.17 mIU/mL | FSH level in blood (G4 Female 5 mg/kg sc 1/day x7, pre): 0.20 mIU/mL | FSH level in blood (G6 Female 10 mg/kg sc 1/day x7, 4 hr): 0.31 mIU/mL | FSH level in blood (G6 Female 10 mg/kg sc 1/day x7, 8 hr): 0.48 mIU/mL | FSH level in blood (G6 Female 10 mg/kg sc 1/day x7, 2 days): 0.31 mIU/mL | FSH level in blood (G6 Female 10 mg/kg sc 1/day x7, 3 days): 0.20 mIU/mL | FSH level in blood (G6 Female 10 mg/kg sc 1/day x7, 4 days): 0.17 mIU/mL | FSH level in blood (G6 Female 10 mg/kg sc 1/day x7, 5 days): 0.19 mIU/mL | FSH level in blood (G6 Female 10 mg/kg sc 1/day x7, 6 days): 0.1 mIU/mL | FSH level in blood (G6 Female 10 mg/kg sc 1/day x7, 7 days): 0.16 mIU/mL | FSH level in blood (G6 Female 10 mg/kg sc 1/day x7, pre): 0.31 mIU/mL | FSH level in blood (G8 Female 10 mg/kg sc 2/day x4, 4 hr): 0.26 mIU/mL | FSH level in blood (G8 Female 10 mg/kg sc 2/day x4, 8 hr): 0.21 mIU/mL | FSH level in blood (G8 Female 10 mg/kg sc 2/day x4, 2 days): 0.28 mIU/mL | FSH level in blood (G8 Female 10 mg/kg sc 2/day x4, 3 days): 0.18 mIU/mL | FSH level in blood (G8 Female 10 mg/kg sc 2/day x4, 4 days): 0.13 mIU/mL | FSH level in blood (G8 Female 10 mg/kg sc 2/day x4, 5 days): 0.16 mIU/mL | FSH level in blood (G8 Female 10 mg/kg sc 2/day x4, 6 days): 0.15 mIU/mL | FSH level in blood (G8 Female 10 mg/kg sc 2/day x4, 7 days): 0.21 mIU/mL | FSH level in blood (G8 Female 10 mg/kg sc 2/day x4, pre): 0.26 mIU/mL | FSH level in blood (G9 Male 10 mg/kg sc 2/week x2 (days 1,7), 4 hr): 0.29 mIU/mL | FSH level in blood (G9 Male 10 mg/kg sc 2/week x2 (days 1,7), 8 hr): 0.28 mIU/mL | FSH level in blood (G9 Male 10 mg/kg sc 2/week x2 (days 1,7), 2 days): 0.22 mIU/mL | FSH level in blood (G9 Male 10 mg/kg sc 2/week x2 (days 1,7), 3 days): 0.17 mIU/mL | FSH level in blood (G9 Male 10 mg/kg sc 2/week x2 (days 1,7), 4 days): 0.37 mIU/mL | FSH level in blood (G9 Male 10 mg/kg sc 2/week x2 (days 1,7), 5 days): 0.25 mIU/mL | FSH level in blood (G9 Male 10 mg/kg sc 2/week x2 (days 1,7), 6 days): 0.14 mIU/mL | FSH level in blood (G9 Male 10 mg/kg sc 2/week x2 (days 1,7), 7 days): 0.15 mIU/mL | FSH level in blood (G9 Male 10 mg/kg sc 2/week x2 (days 1,7), pre): 0.28 mIU/mL | FSH level in blood (G10 Female 10 mg/kg sc 2/week x2 (days 1,7), 4 hr): 0.26 mIU/mL | FSH level in blood (G10 Female 10 mg/kg sc 2/week x2 (days 1,7), 8 hr): 0.44 mIU/mL | FSH level in blood (G10 Female 10 mg/kg sc 2/week x2 (days 1,7), 2 days): 0.37 mIU/mL | FSH level in blood (G10 Female 10 mg/kg sc 2/week x2 (days 1,7), 3 days): 0.21 mIU/mL | FSH level in blood (G10 Female 10 mg/kg sc 2/week x2 (days 1,7), 4 days): 0.18 mIU/mL | FSH level in blood (G10 Female 10 mg/kg sc 2/week x2 (days 1,7), 5 days): 0.32 mIU/mL | FSH level in blood (G10 Female 10 mg/kg sc 2/week x2 (days 1,7), 6 days): 0.23 mIU/mL | FSH level in blood (G10 Female 10 mg/kg sc 2/week x2 (days 1,7), 7 days): 0.28 mIU/mL | FSH level in blood (G10 Female 10 mg/kg sc 2/week x2 (days 1,7), pre): 0.31 mIU/mL | FSH level in blood (G11 Male 100 mg/kg sc 1/day x7, 4 hr): 0.27 mIU/mL | FSH level in blood (G11 Male 100 mg/kg sc 1/day x7, 8 hr): 0.36 mIU/mL | FSH level in blood (G11 Male 100 mg/kg sc 1/day x7, 2 days): 0.17 mIU/mL | FSH level in blood (G11 Male 100 mg/kg sc 1/day x7, 3 days): 0.14 mIU/mL
